Series [1] has as its system hNSC. Description: hNSC viability, MTT assay after neurosphere culture. The format is cell-based, human. The settings on record: 14 days culture, daily treatment; EGCG 8 μM, Curcumin 0.5 μM, SFN 2.5 μM or all three. In general terms: Tetrazolium dyes change colour on reduction, which living cells bring about.
Method: FIG. 33B) hNSC were plated at 20K cells per 100 ul of medium and cultured in the neurosphere assay for 14 days. […] After 14 days in culture, MTT assay was performed to measure cell viability.
Series [2] relates to Primary human GB stem cell lines. Nature of the series: Daily fold expansion, NP and TMZ in vitro. It is filed as cell-based. The conditions noted are these: in combination with TMZ; EGCG 8 μM, Curcumin 0.5 μM, SFN 2.5 μM or all three. The method, then:
FIG. 11: Daily fold expansion—Effect of NP and TMZ in vitro. Primary human GB stem cell lines were treated daily for 4 out of 5 days in culture TMZ alone or in combination with EGCG (8 μM), Curcumin (0.5 μM), sulforaphane (2.5 μM) or a combination of all three (NP). Cells were passed after 5-7 days and cell counts performed. […] The stars (*) are compared to control, # to TMZ alone and $ to the different combinations of TMZ with each of the individual natural products. 1 symbol, p<0.05, 3 symbols, p<0.001, 1-way ANOVA.
Standard of care [SOC] for many solid tissue cancers involves the use of chemotherapy, which for many advanced or high grade tumors provides marginal benefit. Patient derived hGB cells were grown in culture and treated daily with the conventional drug temozolomide [TMZ, 20 μM] only or in combination with the following NPs:
[4] a combination of all three NPs
After 5-7 days in culture cells were counted and the mean daily fold expansion calculated.

The test system of series [3] is Primary human GBM stem cell lines. Nature of the series: NP in vitro fold expansion of hGB cells. The settings on record: EGCG 8 μM, Curcumin 0.5 μM, sulforaphane 2.5 μM or all three; daily for 4 out of 5 days; vs control. It is filed as cell-based.
Method: Cells were passed after 5-7 days and cell counts were performed. […] Micrographs show cultures after 4 days of exposure to the different treatments.
Patient derived hGB cells were cultured under defined conditions using established protocols that allow the tumor cells to retain both their phenotypic and genotypic properties in vitro. hGB cell lines were treated with the following NPs:
The test system of series [4] is Human breast cancer cells (ZR751). Description: NP on breast cancer cell viability, MTT assay. It is filed as cell-based. The conditions noted are these: daily EGCG 8 μM, Curcumin 0.5 μM, SFN 2.5 μM or combination; vs controls.
Method: Human breast cancer cells (ZR751) were treated daily with EGCG (8 μM), Curcumin (0.5 μM) or SFN (2.5 μM) individually or in combination (NP). Once the control cultures became confluent, cell viability was measured using MTT assay.
Human breast cancer cells [ZR751] grown in culture and treated daily with physiological concentrations of either EGCG (8 μM), Curcumin (0.5 μM) or SFN (2.5 μM) or used in combination (NP).
The subject of series [5] is Colorectal adenocarcinoma cells (HT-29). Description: NP on colon cancer cells in vitro, cell count. It is filed as cell-based, human. The conditions noted are these: daily EGCG 8 μM, Curcumin 0.5 μM, sulforaphane 2.5 μM or all three; counted when controls confluent.
Method: Once the control cultures became confluent, a cell count was performed.
In series [6] the test system is Patient derived hGB cells. Description: Serial passage of hGB cells, growth and CSC expansion rate (Kll). The conditions noted are these: 5 passages; EGCG 8 μM, curcumin 0.5 μM, SFN 2.5 μM or combination; vs control. The format is cell-based, human.
Method: FIG. 10A) Patient derived hGB cells were serially passed in culture for 5 passages under a variety of treatment conditions. […] Human GB cells were cultured in the neurosphere assay over 5 passages during which CSC expansion rate was evaluated.
In a second experiment [FIG. 10], patient derived hGB cells were serially passed in culture while being treated with the following NPs:
[4] A combination of all three NPs
Series [7] is described as follows: Body weight, TMZ vs. mKD/NP. The settings on record: after 4 days of treatment, TMZ 20 mg/kg. The method, then: FIG. 6: Body weight—TMZ vs. mKD/NP. Toxicity/safety of mKD/NP was compared to standard of care (TMZ, 20 mg/kg) by monitoring body weight after 4 days of treatment.
The first line chemotherapy for high grade gliomas is temozolomide [TMZ], which is an oral alkylating agent that damages DNA and triggers cell death. While TMZ is an effective chemotherapy agent it also has significant toxicity. Using the same subcutaneous model as noted in example 2, at the time of tumor presentation animals were randomly assigned to one of three groups: [1] control diet, no treatment; [2] control diet, SOC [TMZ, 20 mg/kg three times/week]; [3] mKD/NP diet.

A short description of series [8]: Non-tumor death, TMZ vs. mKD/NP. It is filed as in vivo, mouse. The conditions noted are these: TMZ 20 mg/kg three times/week; mKD/NP diet; vs untreated controls. From the text:
FIG. 5: Non-Tumor Death—TMZ vs. mKD/NP. Mortality rate unrelated to tumor was monitored during the course of treatments.

Series [9] concerns high-grade gliomas such as GB. The conditions noted are these: GB patients; cited from earlier work.
The test system of series [10] is Lung carcinoma cells (A549). Description: NP on lung cancer cells in vitro, cell count. It is filed as cell-based, human. The conditions noted are these: daily EGCG 8 μM, Curcumin 0.5 μM, sulforaphane 2.5 μM or all three; counted when controls confluent.
Method: Once the control cultures became confluent a cell count was performed.

“Also recorded” adds a separate entry of the source.

As for `C[S+]([O-])CCCCN=C=S` (stereo not drawn) [SFN, sulforaphane], the “cell viability (MTT)” value in series [1] is listed as “did not show any effect on the viability of hNSCs”; in series [4], “no statistically significant effect on reducing the number of breast cancer cells; also recorded: none of the natural product showed statistically significant effect compared to controls”. In addition, in series [2], the “mean daily fold expansion, natural product added to TMZ treatment” value (“mean daily fold expansion … to TMZ treatment” for short) is listed as “enhanced this effect, with SFN demonstrating the greatest effect; also recorded: significant reduction in the mean daily fold expansion of hGB cells compared to control”. Moreover, the “mean daily fold expansion of GB cells” value in series [3] is given as “significant reduction in mean daily fold expansion”. Further, the cell number entry in series [5] is given as “significant reduction in cell number”. Also, the “CSC self-renewing symmetric division rate (Kll)” value in series [6] was “significant decrease of CSCs self-renewing symmetric division rate compared to control”.

In the case of `Cn1nnc2c(C(N)=O)ncn2c1=O` [TMZ, temozolomide], the body weight result was “significant loss of body weight compared to control and mKD/NP” in series [7]; “significantly reduced” in series [7] (listed as SOC). For the same molecule, the “mortality from non-tumor related causes” value in series [8] was “increase in mortality compared to the untreated controls”. The negative side effects result in [9] is “nausea, vomiting and hematological toxicity”.

With `COc1cc(/C=C/C(=O)CC(=O)/C=C/c2ccc(O)c(OC)c2)ccc1O` [Curcumin, curcumin], the “cell viability (MTT)” value is “did not show any effect on the viability of hNSCs” in [1] and “no statistically significant effect on reducing the number of breast cancer cells; also recorded: none of the natural product showed statistically significant effect compared to controls” in series [4]. Further, the “mean daily fold expansion … to TMZ treatment” value in series [2] is listed as “significant reduction in the mean daily fold expansion of hGB cells compared to control”. For the same molecule, the “mean daily fold expansion of GB cells” value in series [3] was “significant reduction in mean daily fold expansion”. Further, the results for the cell number entry in series [10] and in [5] were “do not show a statistically significant effect in reducing cell numbers” and “significant reduction in cell number”, respectively. In addition, in [6], the “CSC self-renewing symmetric division rate (Kll)” value is on record as “Only SFN or NP treated groups demonstrated significant decrease”.

As for epigallocatechin-3-gallate [EGCG], the figures for the “cell viability (MTT)” value in [1] and in series [4] were “did not show any effect on the viability of hNSCs” and “no statistically significant effect on reducing the number of breast cancer cells; also recorded: none of the natural product showed statistically significant effect compared to controls”, respectively. For the same molecule, in series [2], the “mean daily fold expansion … to TMZ treatment” value is listed as “enhanced this effect; also recorded: significant reduction in the mean daily fold expansion of hGB cells compared to control”. Moreover, in [3], the “mean daily fold expansion of GB cells” value is given as “significant reduction in mean daily fold expansion”. Also, the cell number entry in [10] is on record as “do not show a statistically significant effect in reducing cell numbers”; in series [5], “significant reduction in cell number”. The “CSC self-renewing symmetric division rate (Kll)” value in series [6] is “Only SFN or NP treated groups demonstrated significant decrease”.

Source of the values: patent US11666549B2, “Regulation of cancer using natural compounds and/or diet” (UNIVERSITY OF FLORIDA RESEARCH FOUNDATION, INC., priority 2013, dated 2023).
